Experimental findings from article PMC7116001 (Science (New York, N.Y.), 2020) are described below.

The target of the assay is T1, S. acidocaldarius 20S proteasome (Saci_0613/Saci_0662ΔN/Saci_0909ΔN) (Sulfolobus acidocaldarius, UniProt Q4JAA8).
T1 sequence (Q4JAA8 11-203): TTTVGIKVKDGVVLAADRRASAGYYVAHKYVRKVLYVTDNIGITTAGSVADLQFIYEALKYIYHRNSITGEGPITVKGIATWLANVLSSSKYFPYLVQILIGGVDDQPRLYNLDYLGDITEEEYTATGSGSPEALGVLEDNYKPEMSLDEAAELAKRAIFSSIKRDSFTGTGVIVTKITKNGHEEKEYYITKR
T1 sequence (Q4JB24 1-242 partner): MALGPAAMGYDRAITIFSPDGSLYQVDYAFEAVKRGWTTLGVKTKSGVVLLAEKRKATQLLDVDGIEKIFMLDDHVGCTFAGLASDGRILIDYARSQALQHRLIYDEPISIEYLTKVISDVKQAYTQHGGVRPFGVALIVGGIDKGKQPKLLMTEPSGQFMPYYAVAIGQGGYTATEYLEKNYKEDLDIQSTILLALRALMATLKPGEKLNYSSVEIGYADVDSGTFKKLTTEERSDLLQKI
T1 sequence (Q4JAY3 7-195 partner): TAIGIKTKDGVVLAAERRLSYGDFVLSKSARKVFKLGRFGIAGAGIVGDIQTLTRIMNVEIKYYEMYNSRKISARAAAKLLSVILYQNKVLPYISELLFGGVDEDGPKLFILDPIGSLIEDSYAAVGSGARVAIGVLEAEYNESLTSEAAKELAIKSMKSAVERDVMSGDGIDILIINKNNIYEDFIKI
The experiment in a line: degradation of Urm1. In kind it is biochemical. To be noted: substrate 3xUrm1-GFP; covalent (reversible boronate on Thr1, modelled).

Consider `CC(C)C[C@H](NC(=O)[C@H](Cc1ccccc1)NC(=O)c1cnccn1)B(O)O` [bortezomib], for which the “rate of substrate degradation” value was “with different concentrations of inhibitor, the rate of substrate degradation was diminished”.
